Data taken from patent US5801174A, “Fused indole and quinoxaline derivatives, their preparation and use” (Neurosearch A/S, priority 1994, dated 1998).

Key:
[1] = target: AMPA receptor; test: AMPA receptor binding affinity (in vitro); conditions: Table 1
From the text: In Vitro activity (receptor affinity):
(§1) The test results obtained by testing the compounds of the invention for their in-vitro AMPA receptor affinity and their ability to inhibit GABA release are presented in the following table: […]

[2] = tested on: cultured cerebral cortex neurons; test: 3H-GABA release, cultured cerebral cortex neurons; type: cell-based; conditions: Cerebral cortex neuron; inhibition of stimulated 3H-GABA release, mouse cortical neurons, Table 1
From the text: The compounds of the invention have also been tested for their ability to inhibit GABA release from cultured cerebral cortex neurons in the following test:
^3 H-GABA Release, Cortical Neurons
Background: Neurons which express receptors for excitatory amino acids can be depolarized by such compounds and this depolarization will ultimately lead to a release of transmitter substance from the neurons. Cultured neurons obtained from 15-day-old mouse embryo cortex are mainly GABAergic and express all types of excitatory amino acid receptors. This means that they can be stimulated by high potassium or by the excitatory amino acids, NMDA, AMPA and kainate to release their neurotransmitter GABA.
^3 H-GABA may be used to label the GABA transmitter pool in the neurons and the release of ^3 H-GABA from the neurons may be used as a simple functional model for studies of the effects of excitatory amino acids and their antagonists.
Method: Cerebral cortices of 16-day-old mouse embryos are chopped in 0.4×0.4 mm cubes. The tissue is dissociated by mild trypsinization (0.1% (wt/vol) trypsin, 37° C., 15 min) and subsequently inoculated into poly-L-lysine-coated 3-cm Petri dishes containing a slightly modified DMEM (24.5 mM KCI, 30 mM glucose) supplemented with p-aminobenzoate (7 μM), insulin (100 mU/L) and 10% (vol/vol) horse serum. Cells are maintained in culture for 5-7 days with the addition of the antimitotic agent cytosine arbinoside (40 μM) from day 2 in vitro to prevent glial profileration. For further details and references, see Drejer et al. Exp. Brain Res. 47, 259 (1982).
Release experiments are performed using the model described by Drejer et al. Life Sci. 38, 2077 (1986). Cerebral cortex neurons cultured in Petri dishes (30 mm) are added 100 μM γ-vinyl-GABA one hour before the experiment in order to inhibit degradation of GABA in the neurons. 30 min before the experiment 5 μCi ^3 H-GABA is added to each culture and after this preloading period the cell monolayer at the bottom of the dish is covered with a piece of nylon mesh to protect the cells against mechanical damage and to facilitate dispersion of medium over the cell layer. The preloading medium is removed and the Petri dishes are placed in a superfusion system consisting of a peristaltic pump continously delivering thermostated 37° C. superfusion medium HEPES buffered saline (HBS): 10 mM HEPES, 135 mM NaCl, 5 mM KCI, 0.6 mM MgSO4, 1.0 mM CaCl2 and 6 mM D-glucose; pH 7.4) from a reservoir to the top of the slightly tilted Petri dish. The medium is continously collected from the lower part of the dish and delivered to a fraction collector. Initially, the cells are superfused with HBS for 15 min (flow rate 2 ml/min). Then the cells are stimulated for 30 sec every 4 min by changing the superfusion medium from HBS to a corresponding medium containing […].
Test subtances are dissolved in 50% DMSO, 48% ethanol. The final DMSO and ethanol concentration in the assay must not exceed 0.1%.
The stimulated release of ^3 H-GABA (cpm) are corrected for the mean basal release(cpm) before and after stimulation.
The stimulated release in the presence of antagonists are expressed relative to the stimulated release and the IC50 value for the antagonist is calculated (the concentration (μM) of the test substance which inhibit 50% of the stimulated ^3 H-GABA release).
as §1

| IC50 [1] | IC50 [2] | Structure (SMILES) |
| --- | --- | --- |
| 1600 nM | 4500 nM | CCN1Cc2c(-c3ccc(S(=O)(=O)N(C)C)cc3)cc3c(c2C1)NC(=O)C3=NO [7-ethyl-5-(4-(N,N-dimethylsulphamoyl)phenyl)-1,6,7,8-tetrahydrobenzo[1,2-b:3,4-c]dipyrrole-2,3-dione-3-oxime] |
| 140 nM | 500 nM | CCN1Cc2c(-c3ccc(S(=O)(=O)N4CCOCC4)cc3)cc3c(c2C1)NC(=O)C3=NO [7-ethyl-5-(4-(morpholinosulfonyl)phenyl)-1,6,7,8-tetrahydrobenzo[1,2-b:3,4-c]dipyrrole-2,3-dione-3-oxime] |
| 220 nM | 1600 nM | CON=C1C(=O)Nc2c1cc(-c1ccc(S(=O)(=O)N3CCOCC3)cc1)c1c2CCN(C)C1 [7-methyl-5-(4-(morpholinosulfonyl)phenyl)-6,7,8,9-tetrahydro-1H-pyrrolo[2,3-f]isoquinoline-2,3-dione-3-O-methyloxime] |
| 110 nM | 250 nM | CN1CCc2c(c(-c3ccc(S(=O)(=O)N4CCOCC4)cc3)cc3c2NC(=O)C3=NO)C1 [7-methyl-5-(4-(morpholinosulfonyl)phenyl)-6,7,8,9-tetrahydro-1H-pyrrolo[2,3-f]isoquinoline-2,3-dione-3-oxime] |
| 19 nM | 100 nM | CN1CCc2c(-c3ccc(S(=O)(=O)N4CCN(CCO)CC4)cc3)cc3c(c2C1)NC(=O)C3=NO [8-methyl-5-(4-(4-(2-hydroxyethyl)piperazinosulfonyl)-phenyl)-6,7,8,9-tetrahydro-1H-pyrrolo[3,2-h]-isoquinoline-2,3-dione-3-oxime] |
| 130 nM | 500 nM | CN1CCc2c(-c3ccc(S(=O)(=O)N4CCN(Cc5ccc6c(c5)OCO6)CC4)cc3)cc3c(c2C1)NC(=O)C3=NO [8-methyl-5-(4-(4-(3,4-methylenedioxybenzyl)-piperazinosulfonyl)phenyl)-6,7,8,9-tetrahydro-1H-pyrrolo[3,2-h]-isoquinoline-2,3-dione-3-oxime] |
| 68 nM | 877 nM | CN1CCc2c(-c3ccc(S(=O)(=O)N4CCN(c5ccc(Cl)cc5)CC4)cc3)cc3c(c2C1)NC(=O)C3=NO [8-methyl-5-(4-(4-(4-chlorophenyl)piperazinosulfonyl)-phenyl)-6,7,8,9-tetrahydro-1H-pyrrolo[3,2-h]-isoquinoline-2,3-dione-3-oxime] |
| 50 nM | 130 nM | CN1CCc2c(-c3ccc(S(=O)(=O)N(CCO)CCO)cc3)cc3c(c2C1)NC(=O)C3=NO [8-methyl-5-(4-(N,N-bis(2-hydroxyethyl)sulphamoyl)-phenyl)-6,7,8,9-tetrahydro-1H-pyrrolo[3,2-h]-isoquinoline-2,3-dione-3-oxime] |
| 38 nM | 450 nM | CCN(CC)CCN(CCN(CC)CC)S(=O)(=O)c1ccc(-c2cc3c(c4c2CCN(C)C4)NC(=O)C3=NO)cc1 [8-methyl-5-(4-(N,N-di(2-(N,N-diethylamino)ethyl)-sulphamoyl)-phenyl)-6,7,8,9-tetrahydro-1H-pyrrolo[3,2-h]-isoquinoline-2,3-dione-3-oxime] |
| 540 nM | 1900 nM | CN1CCc2c(-c3ccc(S(=O)(=O)N(Cc4ccccc4)Cc4ccccc4)cc3)cc3c(c2C1)NC(=O)C3=NO [8-methyl-5-(4-(N,N-dibenzylsulphamoyl)-phenyl)-6,7,8,9-tetrahydro-1H-pyrrolo[3,2-h]-isoquinoline-2,3-dione-3-oxime] |
| 18 nM | 160 nM | CCN(CC)S(=O)(=O)c1ccc(-c2cc3c(c4c2CCN(C)C4)NC(=O)C3=NO)cc1 [8-methyl-5-(4-(N,N-diethylsulphamoyl)-phenyl)-6,7,8,9-tetrahydro-1H-pyrrolo[3,2-h]-isoquinoline-2,3-dione-3-oxime] |
| 140 nM | 190 nM | CN1CCc2c(-c3ccc(C(=O)N(C)C)cc3)cc3c(c2C1)NC(=O)C3=NO [8-methyl-5-(4-(N,N-dimethylcarbamoyl)-phenyl)-6,7,8,9-tetrahydro-1H-pyrrolo[3,2-h]-isoquinoline-2,3-dione-3-oxime] |
| 200 nM | 1700 nM | CON=C1C(=O)Nc2c1cc(-c1ccc(S(=O)(=O)N(C)C)cc1)c1c2CN(C)CC1 [8-methyl-5-(4-(N,N-dimethylsulphamoyl)-phenyl)-6,7,8,9-tetrahydro-1H-pyrrolo[3,2-h]-isoquinoline-2,3-dione-3-O-methyloxime] |
| 470 nM | 5500 nM | CN1CCc2c(-c3ccc(S(=O)(=O)N(C)C)cc3)cc3c(c2C1)NC(=O)C3=NOC(C)(C)C [8-methyl-5-(4-(N,N-dimethylsulphamoyl)-phenyl)-6,7,8,9-tetrahydro-1H-pyrrolo[3,2-h]-isoquinoline-2,3-dione-3-O-t-butyloxime] |
| 40 nM | 330 nM | CN1CCc2c(-c3ccc(S(=O)(=O)NCCO)cc3)cc3c(c2C1)NC(=O)C3=NO [8-methyl-5-(4-(N-(2-hydroxyethyl)sulphamoyl)-phenyl)-6,7,8,9-tetrahydro-1H-pyrrolo[3,2-h]-isoquinoline-2,3-dione-3-oxime] |
| 34 nM | 340 nM | CCOC(=O)CNS(=O)(=O)c1ccc(-c2cc3c(c4c2CCN(C)C4)NC(=O)C3=NO)cc1 [8-methyl-5-(4-(N-(ethoxycarbonylmethyl)-sulphamoyl)phenyl)-6,7,8,9-tetrahydro-1H-pyrrolo[3,2-h]isoquinoline-2,3-dione-3-oxime] |
| 190 nM | 310 nM | CN(C)CCN(C)S(=O)(=O)c1ccc(-c2cc3c(c4c2CCN(C)C4)NC(=O)C3=NO)cc1 [8-methyl-5-(4-(N-methyl-N-(2-(N,N-dimethylamino)-ethyl)sulphamoyl)-phenyl)-6,7,8,9-tetrahydro-1H-pyrrolo[3,2-h]-isoquinoline-2,3-dione-3-oxime] |
| 66 nM | 380 nM | CN1CCc2c(-c3ccc(S(=O)(=O)Nc4ccccc4)cc3)cc3c(c2C1)NC(=O)C3=NO [8-methyl-5-(4-(N-phenylsulphamoyl)-phenyl)-6,7,8,9-tetrahydro-1H-pyrrolo[3,2-h]-isoquinoline-2,3-dione-3-oxime] |
| 30 nM | 240 nM | CN1CCc2c(-c3ccc(S(=O)(=O)NC(C)(C)C)cc3)cc3c(c2C1)NC(=O)C3=NO [8-methyl-5-(4-(N-t-butylsulphamoyl)-phenyl)-6,7,8,9-tetrahydro-1H-pyrrolo[3,2-h]-isoquinoline-2,3-dione-3-oxime] |
| 100 nM | 3700 nM | CCOC(=O)c1ccc(-c2cc3c(c4c2CCN(C)C4)NC(=O)C3=NO)cc1 [8-methyl-5-(4-(ethoxycarbonyl)phenyl)-6,7,8,9 tetrahydro-1H-pyrrolo[3,2-h]-isoquinoline-2,3-dione-3-oxime] |
| 820 nM | 2160 nM | CN1CCc2c(-c3ccc(S(=O)(=O)N4CCOCC4)cc3)cc3c(c2C1)NC(=O)C3=O [8-methyl-5-(4-(morpholinosulfonyl)-phenyl)-6,7,8,9-tetrahydro-1H-pyrrolo[3,2-h]-isoquinoline-2,3-dione] |
| 40 nM | 30 nM | CN1CCc2c(-c3ccc(S(=O)(=O)N4CCOCC4)cc3)cc3c(c2C1)NC(=O)C3=NO [8-methyl-5-(4-(morpholinosulfonyl)phenyl)-6,7,8,9-tetrahydro-1H-pyrrolo[3,2-h]-isoquinoline-2,3-dione-3-oxime] |
| 27 nM | 240 nM | CN1CCc2c(-c3ccc(S(=O)(=O)N4CCCCC4)cc3)cc3c(c2C1)NC(=O)C3=NO [8-methyl-5-(4-(piperidinosulfonyl)-phenyl)-6,7,8,9-tetrahydro-1H-pyrrolo[3,2-h]-isoquinoline-2,3-dione-3-oxime] |
| 25 nM | 270 nM | CN1CCc2c(-c3ccc(S(N)(=O)=O)cc3)cc3c(c2C1)NC(=O)C3=NO [8-methyl-5-(4-(sulphamoyl)phenyl)-6,7,8,9-tetrahydro-1H-pyrrolo[3,2-h]isoquinoline-2,3-dione-3-oxime] |
